Legend:
[1] = DIO mice, fasting glucose and fasting insulin after single dose, experiment #2 (Example 7); type: in vivo; details: experiment #2, day 2; PEG-OXM single SC 6000 nmol/kg; Liraglutide 200 μg/kg bid
Method: (§1) On the morning of day 1 the mice were dosed followed by an overnight fasting. On days 2, 24 h following administration (groups A-E) or prior to the morning dosing (groups F-H), the mice were sampled for fasting glucose and fasting insulin.
The second experiment included 7 groups (n=7) of DIO mice that were dosed for 2 days as follows: […]

[2] = DIO mice, fasting glucose and fasting insulin after single dose, experiment #1 (Example 7); type: in vivo; details: experiment #1, day 2
Method: as §1
In this set of experiments two independent in vivo studies were carried out. The first experiment included 8 groups (n=8) of DIO mice that were dosed for 2 days as follows: […]

[3] = Diet-induced obesity mice model, Study 1: body weight and food intake; type: in vivo, C57BL/6J mice; details: SC, 7 days dosing, OXM 5000 nmol/kg b.i.d; for Body weight loss on Day 8 compared to control group: PEG40-FMS-OXM 5000 nmol/kg Days 1, 3, 5, 7, Sibutramine 20 mg/kg b.i.d
Method: Data are adjusted means (n=10). SEMs are calculated from the residuals of the statistical model. Mice were dosed for 7 days started on Day 1. […] Significant differences vs. appropriate vehicle: *p<0.05, **p<0.01, ***p<0.001. Percentage values indicate difference from appropriate vehicle group on Day 8 (i.e. after 7 days dosing).
Measurements of body weight and food intake were performed daily until Day 8. The final measurement of body weight was carried out on Day 12.
Body weight and food intake are expressed as mean values±SEM.

[4] = IP glucose tolerance test (IPGTT); type: in vivo, C57BL/6 mice; details: OXM and PEG40-EMCS-OXM 333 nmol/kg 15 min before glucose, PEG40-Fmoc-OXM […] peptide content 2 hrs before, vs vehicle
Method: Blood glucose levels were measured by tail vein sampling prior to glucose administration and 10, 20, 30, 60 and 120 min after glucose administration using a handheld glucometer.
Blood glucose levels were measured by tail vein sampling prior to glucose administration and 10, 20, 30, 60 and 120 min after to glucose administration using a handheld glucometer.

[5] = molecular target: CHO-K1 cells over-expressing GLP-1 receptor (Homo sapiens, UniProt P43220); details: rat serum 1%
Method: Cells cAMP concentrations were quantified by HTRF assay (Cisbio 62AM4PEB) and EC50 parameter was analyzed by PRISM software.
Cells' cAMP concentrations were quantified by HTRF assay (Cisbio 62AM4PEB), and the EC50 parameter was analyzed by PRISM software.

[6] = DIO mouse model, 29 days dosing (Example 6): body weight; type: in vivo, C57BL/6J mice; details: SC 6,000 nmol/kg; PEG conjugates weekly, native OXM twice per day
[7] = single SC 6,000 nmol/kg (OXM b.i.d)

CHO-K1 cells over-expressing GLP-1 receptor, sequence (P43220 24-463): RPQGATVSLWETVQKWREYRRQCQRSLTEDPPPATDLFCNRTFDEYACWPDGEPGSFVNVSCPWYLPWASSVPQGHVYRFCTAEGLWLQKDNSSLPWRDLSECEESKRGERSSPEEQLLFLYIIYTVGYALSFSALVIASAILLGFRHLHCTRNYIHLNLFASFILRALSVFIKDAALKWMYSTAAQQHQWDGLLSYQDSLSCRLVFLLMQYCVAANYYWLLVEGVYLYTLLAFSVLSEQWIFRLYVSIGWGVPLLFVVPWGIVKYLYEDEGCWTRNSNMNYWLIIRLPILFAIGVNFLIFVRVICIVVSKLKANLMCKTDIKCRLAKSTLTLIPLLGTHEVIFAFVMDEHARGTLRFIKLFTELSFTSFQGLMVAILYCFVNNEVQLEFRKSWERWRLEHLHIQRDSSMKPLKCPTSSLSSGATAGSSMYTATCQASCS

| Molecule | Fasted plasma insulin level [1] [ng/mL] | Fasting glucose level [1] [mM] | Fasting glucose level ([2]; PEG-OXM single SC 6,000 nmol/kg on day 1, Liraglutide 200 μg/kg b.i.d) [mM] | Fasted plasma insulin level ([2]; PEG-OXM single SC 6,000 nmol/kg, Liraglutide 200 μg/kg b.i.d) [ng/mL] | Body weight loss on Day 8 compared to control group [3] [%] | Induction of glucose tolerance (blood glucose after IP glucose 1.5 gr/kg) [4] | Inhibition of food intake ([3]; PEG40-FMS-OXM 5000 nmol/kg every other day) | cAMP activity after incubation in rat serum versus without serum [5] | Weight loss during a 30-day period [6] [%] | Fasting glucose compared to vehicle [2, 7] | Fasting plasma insulin compared to controls [2, 7] |
| --- | --- | --- | --- | --- | --- | --- | --- | --- | --- | --- | --- |
| CCCCCCCCCCCCCCCC(=O)N[C@@H](CCC(=O)NCCCC[C@H](NC(=O)[C@H](C)NC(=O)[C@H](C)NC(=O)[C@H](CCC(N)=O)NC(=O)CNC(=O)[C@H](CCC(=O)O)NC(=O)[C@H](CC(C)C)NC(=O)[C@H](Cc1ccc(O)cc1)NC(=O)[C@H](CO)NC(=O)[C@H](CO)NC(=O)[C@@H](NC(=O)[C@H](CC(=O)O)NC(=O)[C@H](CO)NC(=O)[C@@H](NC(=O)[C@H](Cc1ccccc1)NC(=O)[C@@H](NC(=O)CNC(=O)[C@H](CCC(=O)O)NC(=O)[C@H](C)NC(=O)[C@@H](N)Cc1cnc[nH]1)[C@@H](C)O)[C@@H](C)O)C(C)C)C(=O)N[C@@H](CCC(=O)O)C(=O)N[C@@H](Cc1ccccc1)C(=O)N[C@H](C(=O)N[C@@H](C)C(=O)N[C@@H](Cc1c[nH]c2ccccc12)C(=O)N[C@@H](CC(C)C)C(=O)N[C@H](C(=O)N[C@@H](CCCNC(=N)N)C(=O)NCC(=O)N[C@@H](CCCNC(=N)N)C(=O)NCC(=O)O)C(C)C)[C@@H](C)CC)C(=O)O [Liraglutide] | 3 | 6.7 | 6.06 | 4.4 | – | – | – | – | – | – | – |
| CC(C)CC(N(C)C)C1(c2ccc(Cl)cc2)CCC1 (stereo not drawn) [Sibutramine] | – | – | – | – | 15.6 | – | – | – | – | – | – |
| Oxyntomodulin [OXM] | – | – | – | – | 6 | minor effect on the glucose tolerance | statistically significant inhibition of food intake | reduced activity | 17 | did not show any significant difference | did not show any significant difference |

— US20140349922A1 (priority 2011, published 2014)
